Results on three molecules are retold here after US5807729A, “Metalloprotease having increased activity” (Novo Nordisk A/S, priority 1995, dated 1998).

Format in all cases: biochemical
One assay addresses p45 Metalloprotease (Fusarium oxysporum, UniProt M1UZ70). Put plainly: Inhibitor analysis of the p45 metalloprotease. The arrangement: precursor 632 aa (18 signal, 226 pro); native or A. oryzae-expressed with same N-terminus. The conditions noted are these: for type of inhibition, p45 Maturase: kinetic analysis. How it is done:
(§1) Other metalloprotease inhibitors are utilized to further differentiate the p45 metalloprotease from the Bacillus thermolysins. Inhibition constants for 1,10-phenanthroline, phosphoramidon, and CdCl2 are determined to be 130 uM, 1 uM, and 67 uM against the p45 Metalloprotease (Table 3). Inhibition constants for 1,10-phenanthroline, phosphoramidon, and CdCl2 are 85 uM, 26 uM, and 2 uM against the Bacillus stearothermophilus thermolysin. […] It is of interest to note that phophoramidon is an effective inhibitor of many bacterial metallo-endopeptidases but few of mammalian origin. Also, it is interesting that CdCl2 is found to be such an effective inhibitor of metalloproteases. No evidence of CdCl2 inhibition of metalloproteases has been found in the literature.

The test system of assay [1] is Bacillus stearothermophilus thermolysin. Put plainly: Inhibitor analysis of B.s. thermolysin. The conditions noted are these: for type of inhibition, B.s. Thermolysin: kinetic analysis; for Ki: read-out: Inhibition Constant (Ki), B.s. Thermolysin. As for the experimental part: as §1
The subject of assay [2] is pro-trypsin-like Fusarium oxysporum protease. Put plainly: Proteolytic enzyme assay: tryptic activity released from pro-trypsin-like protease, L-BAPNA, 405 nm. How it is done:
Metalloprotease activity is measured as released trypsin activity from pro-trypsin-like Fusarium oxysporum protease deposited at the Deutsche Sammlung von Mikroorganismen, Gottingen, Germany under the number DSM 2672, after a 30-60 min pre-incubation at 25° C. in 0.1M Tris, 2 mM CaCl2, pH 7 (at lower pH, 100 mM borate, 10 mM DMG, 2 mM CaCl2 is used).
Metalloproteases contain a catalytic zinc metal center which participates in the hydrolysis of the peptide backbone. The active zinc center differentiates these proteases from calpains whose activities are dependent upon the presence of calcium. Confirmation of a protease as a metallo-protease is loss of proteolytic activity accomplished by removal of the zinc center with 1,10-phenanthroline (1 mM) followed by titration with Zn^2+ (0.1-100 μM) to restore full activity.
However, when combined the metalloprotease cleaves recombinant pro-trypsin-like Fusarium oxysporum protease disclosed, supra to yield the active tryptic protease. Metalloprotease activity is halted upon the addition of 1 mM 1,10-phenanthroline (Table 1).

Read-outs that look alike come from different tables or passages of the source.

p45 Metalloprotease, sequence (M1UZ70 245-632 C408Y): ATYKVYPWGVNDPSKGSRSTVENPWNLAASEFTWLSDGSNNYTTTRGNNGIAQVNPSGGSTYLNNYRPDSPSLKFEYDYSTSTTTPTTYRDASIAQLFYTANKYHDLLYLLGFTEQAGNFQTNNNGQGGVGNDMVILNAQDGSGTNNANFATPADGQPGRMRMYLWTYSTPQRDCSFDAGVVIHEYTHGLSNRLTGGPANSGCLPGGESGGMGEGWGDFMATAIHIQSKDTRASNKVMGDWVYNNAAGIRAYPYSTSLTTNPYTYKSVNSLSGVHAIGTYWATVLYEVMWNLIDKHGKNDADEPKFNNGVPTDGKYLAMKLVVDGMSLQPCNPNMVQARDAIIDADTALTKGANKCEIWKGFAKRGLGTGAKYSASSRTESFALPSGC

As usually defined, the Ki is a dissociation constant, usually derived from enzyme kinetics or from competition with a known ligand. As to `CC(C)C[C@H](NP(=O)(O)O[C@@H]1O[C@@H](C)[C@H](O)[C@@H](O)[C@H]1O)C(=O)N[C@@H](Cc1c[nH]c2ccccc12)C(=O)O` [phosphoramidon], on p45 Metalloprotease, the Ki was 1 µM and the “type of inhibition, p45 Maturase” value was “Noncompetitive”. In addition, in assay [1], the “type of inhibition, B.s. Thermolysin” value is “Noncompetitive” and the Ki turned out to be 26 µM.
As to `[Cl][Cd][Cl]` [CdCl2], the “type of inhibition, p45 Maturase” value at p45 Metalloprotease is on record as “Noncompetitive”. Moreover, the Ki at p45 Metalloprotease (read-out: Inhibition Constant (Ki), p45 Maturase) stood at 67 µM; in assay [1], 2 µM. Moreover, the “type of inhibition, B.s. Thermolysin” value in assay [1] is “Competitive”.

B1: Pro-trypsin-like F. oxysporum protease: recombinant proenzyme form of the trypsin-like F. oxysporum protease (protein)
chain: APQEIPNIVGGTSASAGDFPFIVSISRNGGPWCGGSLLNANTVLTAAHCVSGYAQSGFQIRAGSLSRTSGGITSSLSSVRVHPSYSGNNNDLAILKLSTSIPSGGNIGYARLAASGSDPVAGSSATVAGWGATSEGGSSTPVNLLKVTVPIVSRATCRAQYGTSAITNQMFCAGVSSGGKDSCQGDSGGPIVDSSNTLIGAVSWGNGCARPNYSGVYASVGALRSFIDTYA
As to B1, the “tryptic activity of the sample alone” value in assay [2] (sample alone) is “do not contain any tryptic activity”. In assay [2] (without 1,10-phenanthroline, without Zn2+), the “Tryptic Activity” value is reported as 1.26 Δ Abs/min × 10^-4.
